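Cultured in 96-well plates, cells were exposed to test compound for 48 hours across five concentrations. TGI: total growth inhibition.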
Legend:
Assay in all cases: growth of human tumour cells (NCI), 48 h
[1] = tested on: 786-0 renal
[2] = tested on: A498 renal
[3] = tested on: A549 NSCLC
[4] = tested on: ACHN renal
[5] = tested on: BT-549 breast
[6] = tested on: CAKI-1 renal
[7] = tested on: CCRF-CEM leukemia
[8] = tested on: COLO 205 colon
[9] = tested on: DU-145 prostate
[10] = tested on: EKVX NSCLC
[11] = tested on: HCC-2998 colon
[12] = tested on: HCT-116 colon
[13] = tested on: HCT-15 colon
[14] = tested on: HL-60(TB) leukemia
[15] = tested on: HOP-62 NSCLC
[16] = tested on: HOP-92 NSCLC
[17] = tested on: HT29 colon
[18] = tested on: IGROV1 ovarian
[19] = tested on: K-562 leukemia
[20] = tested on: KM12 colon
[21] = tested on: LOX IMVI melanoma
[22] = tested on: M14 melanoma
[23] = tested on: MALME-3M melanoma
[24] = tested on: MCF7 breast
[25] = tested on: MDA-MB-231 breast
[26] = tested on: MDA-MB-435
[27] = tested on: MDA-N
[28] = tested on: MOLT-4 leukemia
[29] = tested on: NCI-H226 lung
[30] = tested on: NCI-H23 lung
[31] = tested on: NCI-H460 lung
[32] = tested on: NCI/ADR-RES ovarian
[33] = tested on: OVCAR-3 ovarian
[34] = tested on: OVCAR-4 ovarian
[35] = tested on: OVCAR-5 ovarian
[36] = tested on: OVCAR-8 ovarian
[37] = tested on: PC-3 prostate
[38] = tested on: RPMI-8226 leukemia
[39] = tested on: RXF 393 renal
[40] = tested on: SF-268 CNS
[41] = tested on: SF-295 CNS
[42] = tested on: SF-539 CNS
[43] = tested on: SK-MEL-2 melanoma
[44] = tested on: SK-MEL-28 melanoma
[45] = tested on: SK-MEL-5 melanoma
[46] = tested on: SK-OV-3 ovarian
[47] = tested on: SN12C renal
[48] = tested on: SNB-19 CNS
[49] = tested on: SNB-75 CNS
[50] = tested on: SW-620 colon
[51] = tested on: T-47D breast
[52] = tested on: TK-10 renal
[53] = tested on: U251 CNS
[54] = tested on: UACC-257 melanoma
[55] = tested on: UACC-62 melanoma
[56] = tested on: NCI-H522 lung
[57] = tested on: SR leukemia
[58] = tested on: UO-31 renal

## N#CC(=S)Nc1cccc(Cl)c1
[1]
  TGI: > 100 µM
[2]
  TGI: > 100 µM
[3]
  TGI: > 100 µM
[4]
  TGI: > 100 µM
[5]
  TGI: > 100 µM
[6]
  TGI: > 100 µM
[7]
  TGI: > 100 µM
[8]
  TGI: > 100 µM
[9]
  TGI: > 100 µM
[10]
  TGI: > 100 µM
[11]
  TGI: 83.1 µM
[12]
  TGI: > 100 µM
[13]
  TGI: > 100 µM
[14]
  TGI: 70.4 µM
[15]
  TGI: > 100 µM
[16]
  TGI: > 100 µM
[17]
  TGI: > 100 µM
[18]
  TGI: 29.4 µM
[19]
  TGI: > 100 µM
[20]
  TGI: > 100 µM
[21]
  TGI: > 100 µM
[22]
  TGI: > 100 µM
[23]
  TGI: > 100 µM
[24]
  TGI: > 100 µM
[25]
  TGI: > 100 µM
[26]
  TGI: > 100 µM
[27]
  TGI: > 100 µM
[28]
  TGI: > 100 µM
[29]
  TGI: > 100 µM
[30]
  TGI: > 100 µM
[31]
  TGI: > 100 µM
[32]
  TGI: > 100 µM
[33]
  TGI: 56.4 µM
[34]
  TGI: > 100 µM
[35]
  TGI: > 100 µM
[36]
  TGI: > 100 µM
[37]
  TGI: > 100 µM
[38]
  TGI: 61.4 µM
[39]
  TGI: > 100 µM
[40]
  TGI: > 100 µM
[41]
  TGI: > 100 µM
[42]
  TGI: 93.7 µM
[43]
  TGI: > 100 µM
[44]
  TGI: > 100 µM
[45]
  TGI: 44.5 µM
[46]
  TGI: 87.9 µM
[47]
  TGI: > 100 µM
[48]
  TGI: > 100 µM
[49]
  TGI: 75.9 µM
[50]
  TGI: > 100 µM
[51]
  TGI: > 100 µM
[52]
  TGI: > 100 µM
[53]
  TGI: > 100 µM
[54]
  TGI: > 100 µM
[55]
  TGI: > 100 µM

## CC(C)Oc1cc2c(cc1O)CC[C@@H]1[C@@H]2CC[C@]2(C)[C@@H](O)CC[C@@H]12
[1]
  TGI: 36.1 µM
[2]
  TGI: 26.9 µM
[3]
  TGI: 65.9 µM
[4]
  TGI: > 84.7 µM
[5]
  TGI: 52.7 µM
[6]
  TGI: > 20 µM
[7]
  TGI: > 39.8 µM
[8]
  TGI: 40.7 µM
[9]
  TGI: 59.7 µM
[10]
  TGI: > 62 µM
[11]
  TGI: 20.9 µM
[12]
  TGI: 14.7 µM
[13]
  TGI: 19.1 µM
[14]
  TGI: > 38.1 µM
[15]
  TGI: 18.1 µM
[16]
  TGI: 33.5 µM
[17]
  TGI: 23 µM
[18]
  TGI: 42.9 µM
[19]
  TGI: 30.8 µM
[20]
  TGI: 16.5 µM
[21]
  TGI: 18.3 µM
[22]
  TGI: 18.4 µM
[23]
  TGI: 27.3 µM
[24]
  TGI: 30.3 µM
[25]
  TGI: 26.6 µM
[26]
  TGI: 10.9 µM
[27]
  TGI: 3.6 µM
[28]
  TGI: 30.2 µM
[29]
  TGI: 18.4 µM
[30]
  TGI: 37.4 µM
[31]
  TGI: 14.4 µM
[56]
  TGI: 6.75 µM
[32]
  TGI: 19.9 µM
[33]
  TGI: 12 µM
[34]
  TGI: 61.1 µM
[35]
  TGI: 60.7 µM
[36]
  TGI: 60.6 µM
[37]
  TGI: > 67.4 µM
[38]
  TGI: 35.7 µM
[39]
  TGI: 17.2 µM
[40]
  TGI: 51.7 µM
[41]
  TGI: 11.8 µM
[42]
  TGI: 6.93 µM
[43]
  TGI: > 24.8 µM
[44]
  TGI: 56.6 µM
[45]
  TGI: 12.8 µM
[46]
  TGI: 48.3 µM
[47]
  TGI: 29.1 µM
[48]
  TGI: 31.8 µM
[49]
  TGI: 53.1 µM
[57]
  TGI: 27.8 µM
[50]
  TGI: 27.2 µM
[51]
  TGI: 35.7 µM
[52]
  TGI: 54.6 µM
[53]
  TGI: 24.4 µM
[54]
  TGI: 24.6 µM
[55]
  TGI: 13.2 µM
[58]
  TGI: 46.6 µM

## Cc1cn(C2CC(SCCO)C(CO)O2)c(=O)[nH]c1=O (stereo not drawn)
[1]
  TGI: > 100 µM
[2]
  TGI: > 100 µM
[3]
  TGI: > 100 µM
[4]
  TGI: > 100 µM
[5]
  TGI: > 100 µM
[6]
  TGI: > 100 µM
[7]
  TGI: > 100 µM
[8]
  TGI: > 100 µM
[9]
  TGI: > 100 µM
[10]
  TGI: > 100 µM
[11]
  TGI: > 100 µM
[12]
  TGI: > 100 µM
[13]
  TGI: > 100 µM
[14]
  TGI: > 100 µM
[15]
  TGI: > 100 µM
[16]
  TGI: > 100 µM
[17]
  TGI: > 100 µM
[18]
  TGI: > 100 µM
[19]
  TGI: > 100 µM
[20]
  TGI: > 100 µM
[22]
  TGI: > 100 µM
[23]
  TGI: > 100 µM
[24]
  TGI: > 100 µM
[25]
  TGI: > 100 µM
[26]
  TGI: > 100 µM
[27]
  TGI: > 100 µM
[28]
  TGI: > 100 µM
[29]
  TGI: > 100 µM
[30]
  TGI: > 100 µM
[31]
  TGI: > 100 µM
[56]
  TGI: > 100 µM
[32]
  TGI: > 100 µM
[33]
  TGI: > 100 µM
[34]
  TGI: > 100 µM
[35]
  TGI: > 100 µM
[36]
  TGI: > 100 µM
[37]
  TGI: > 100 µM
[38]
  TGI: > 100 µM
[39]
  TGI: > 100 µM
[40]
  TGI: > 100 µM
[41]
  TGI: > 100 µM
[42]
  TGI: > 100 µM
[43]
  TGI: > 100 µM
[44]
  TGI: > 100 µM
[46]
  TGI: > 100 µM
[47]
  TGI: > 100 µM
[48]
  TGI: > 100 µM
[49]
  TGI: > 100 µM
[57]
  TGI: > 100 µM
[50]
  TGI: > 100 µM
[51]
  TGI: > 100 µM
[53]
  TGI: > 100 µM
[54]
  TGI: > 100 µM
[55]
  TGI: > 100 µM
[58]
  TGI: > 100 µM

## CCCCNC(=S)Nc1nc(C(=O)NNC(=S)NCc2ccccc2)cs1
[1]
  TGI: > 100 µM
[2]
  TGI: > 100 µM
[3]
  TGI: > 100 µM
[4]
  TGI: 78.5 µM
[5]
  TGI: > 100 µM
[6]
  TGI: 90.1 µM
[8]
  TGI: > 100 µM
[9]
  TGI: > 100 µM
[10]
  TGI: > 100 µM
[11]
  TGI: > 100 µM
[12]
  TGI: > 100 µM
[13]
  TGI: > 100 µM
[15]
  TGI: > 100 µM
[17]
  TGI: > 100 µM
[18]
  TGI: > 100 µM
[19]
  TGI: > 100 µM
[20]
  TGI: > 100 µM
[21]
  TGI: > 100 µM
[22]
  TGI: > 100 µM
[23]
  TGI: > 100 µM
[24]
  TGI: > 100 µM
[25]
  TGI: > 100 µM
[26]
  TGI: > 100 µM
[27]
  TGI: > 100 µM
[28]
  TGI: > 100 µM
[29]
  TGI: > 100 µM
[30]
  TGI: > 100 µM
[56]
  TGI: > 100 µM
[32]
  TGI: > 100 µM
[33]
  TGI: > 100 µM
[34]
  TGI: > 100 µM
[35]
  TGI: > 100 µM
[36]
  TGI: > 100 µM
[37]
  TGI: > 100 µM
[38]
  TGI: > 100 µM
[40]
  TGI: > 100 µM
[41]
  TGI: > 100 µM
[42]
  TGI: 68.6 µM
[43]
  TGI: > 100 µM
[45]
  TGI: 70.2 µM
[46]
  TGI: > 100 µM
[47]
  TGI: > 100 µM
[57]
  TGI: 27.5 µM
[50]
  TGI: > 100 µM
[51]
  TGI: 59.3 µM
[52]
  TGI: > 100 µM
[53]
  TGI: > 100 µM
[54]
  TGI: 83.9 µM
[55]
  TGI: > 100 µM
[58]
  TGI: > 100 µM

Reference: PubChem BioAssay (NCI)
